These results are taken from patent US5552404A, “Opioid compounds and methods for using same” (Delta Pharmaceuticals, Inc., priority 1995, dated 1996).

The test system of data set [1] is rodent test subjects. Description: Muscle rigidity in rodents. The following applies: vs morphine.
Data set [2] relates to pressure nociception in rats. Description: Analgesic activity, tail pinch assay in rats (i.v.). To be noted: iv, 5 min, rat tail pinch, 5 minutes after injection, read-out: Antinociceptive ED50 (half-maximum effective dose). Type of data set: in vivo, rat (male Sprague-Dawley CD strain). How it is done: Analgesic activity was assessed by the tail pinch assay in rats (male Sprague-Dawley CD strain, weight approximately 300 g) after intravenous (i.v.) tail vein injection. A group of 6 to 8 animals was injected i.v. with compound in sterile 5% dextrose solution at a concentration of 1-5 mg/mL. Five minutes after injection, an artery clamp (Fisher Scientific Co., self-closing artery forcep, catalog #08-905) was placed on the tail about one inch from the tip of the tail to induce pressure nociception for a short duration (maximum of 20 seconds). The nociceptive response was judged by any sign of discomfort, such as running, squeaking, or turning around to bite the clamp. The dose-response curve was plotted for each compound.

A further data set relates to mu opioid receptor. Nature of the data set: Agonism at mu opioid receptor.
Another data set has as its target delta opioid receptor (Mus musculus, UniProt P32300). Description: Agonism at delta opioid receptor.
The subject of data set [3] is rodent test subjects. Description: Proconvulsant activity in rodent tests.
The test system of data set [4] is rodent test subjects. Nature of the data set: Respiratory depression in rodents. The following applies: vs morphine.
Data set [5] relates to opioid receptors (mu/delta). Description: Opioid receptor ligand selectivity / mixed agonist character.
Data set [6] deals with rodent test subjects. Description: Analgesia. Type of data set: in vivo. To be noted: for analgesia efficacy: in vivo; for analgesia compared with morphine: rodent test subjects.

delta opioid receptor, sequence (P32300 whole entry): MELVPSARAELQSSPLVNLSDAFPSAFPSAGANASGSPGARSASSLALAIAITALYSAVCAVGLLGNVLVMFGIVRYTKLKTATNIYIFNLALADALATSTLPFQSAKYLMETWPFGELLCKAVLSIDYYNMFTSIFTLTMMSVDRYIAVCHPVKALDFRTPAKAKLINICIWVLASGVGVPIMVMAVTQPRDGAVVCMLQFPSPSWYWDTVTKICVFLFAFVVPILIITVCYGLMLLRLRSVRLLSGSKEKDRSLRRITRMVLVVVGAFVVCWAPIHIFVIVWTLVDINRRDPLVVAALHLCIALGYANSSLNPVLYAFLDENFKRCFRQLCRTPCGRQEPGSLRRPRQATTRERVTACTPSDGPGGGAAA

As for `C=CCN1C[C@H](C)N([C@@H](c2cccc(O)c2)c2cccc(C(=O)N(CC)CC)c2)C[C@H]1C` [Example 1, (+)-3-((αR)-α-((2S,5R)-4-Allyl-2,5-dimethyl-1-piperazinyl)-3-hydroxybenzyl)-N,N-diethylbenzamide], in the data set on rodent test subjects [1], the muscle rigidity entry is listed as “much reduced extent”. The ED50 in data set [2] is 0.35 mg/kg. Further, in the data set on mu opioid receptor, the “agonism at mu opioid receptor” value is on record as “agonism”. For the same compound, on delta opioid receptor, the “agonism at delta opioid receptor” value is reported as “agonism”. The proconvulsant activity result with rodent test subjects [3] is listed as “free of proconvulsant activity”. Moreover, in the data set with rodent test subjects [4], the respiratory depression entry is listed as “much reduced extent”. For the same compound, in data set [5], the opioid agonist character entry is recorded as “mixed mu/delta opioid agonists” and the “opioid receptor ligand selectivity” value is “highly selective”. Further, in the data set with rodent test subjects [6], the analgesia efficacy entry was “efficacious in mediating analgesia” and the “analgesia compared with morphine” value is reported as “comparable to mu-analgesic morphine”.
With `C=CCN1C[C@H](C)N([C@@H](c2cccc(O)c2)c2cccc(C(=O)N(C)c3ccccc3)c2)C[C@H]1C` [Example 9, (+)-3-((αR)-α-((2S,5R)-4-Allyl-2.5dimethyl-1-piperazinyl)-3-hydroxybenzyl)-N-methyl-N-phenylbenzamide], the muscle rigidity entry in the data set with rodent test subjects [1] is on record as “much reduced extent”. Also, in the data set with mu opioid receptor, the “agonism at mu opioid receptor” value is listed as “agonism”. Further, on delta opioid receptor, the “agonism at delta opioid receptor” value is listed as “agonism”. Moreover, in the data set with rodent test subjects [3], the proconvulsant activity result is on record as “free of proconvulsant activity”. Further, the respiratory depression entry in the data set with rodent test subjects [4] is “much reduced extent”. In data set [5], the opioid agonist character result is reported as “mixed mu/delta opioid agonists” and the “opioid receptor ligand selectivity” value is listed as “highly selective”. Moreover, in the data set on rodent test subjects [6], the analgesia efficacy result is “efficacious in mediating analgesia” and the “analgesia compared with morphine” value is listed as “comparable to mu-analgesic morphine”.
For the compound `C=CCN1C[C@H](C)N([C@@H](c2cccc(O)c2)c2cccc(C(=O)N(C)c3ccc(F)cc3)c2)C[C@H]1C` [Example 10, (+)-3-((αR)-α-((2S,5R)-4-Allyl-2,5-dimethyl-1-piperazinyl)-3-hydroxybenzyl)-N-(4-fluorophenyl)-N-methylbenzamide], in the data set on rodent test subjects [1], the muscle rigidity result is given as “much reduced extent”. Further, in the data set on mu opioid receptor, the “agonism at mu opioid receptor” value was “agonism”. Besides, at delta opioid receptor, the “agonism at delta opioid receptor” value is listed as “agonism”. Besides, the proconvulsant activity entry in the data set with rodent test subjects [3] is listed as “free of proconvulsant activity”. Moreover, in the data set on rodent test subjects [4], the respiratory depression entry is listed as “much reduced extent”. In data set [5], the opioid agonist character entry was “mixed mu/delta opioid agonists” and the “opioid receptor ligand selectivity” value was “highly selective”. Also, in the data set with rodent test subjects [6], the analgesia efficacy entry is recorded as “efficacious in mediating analgesia” and the “analgesia compared with morphine” value is given as “comparable to mu-analgesic morphine”.
With `C=CCN1C[C@H](C)N([C@@H](c2cccc(O)c2)c2cccc(C(=O)N(CC)c3ccccc3)c2)C[C@H]1C` [Example 12, (+)-3-((αR)-α-((2S,5R)-4-Allyl-2,5-dimethyl-1-piperazinyl)-3-hydroxybenzyl)-N-ethyl-N-phenylbenzamide], the muscle rigidity result with rodent test subjects [1] is on record as “much reduced extent”. In addition, the “agonism at mu opioid receptor” value in the data set on mu opioid receptor is recorded as “agonism”. Further, on delta opioid receptor, the “agonism at delta opioid receptor” value is reported as “agonism”. For the same compound, the proconvulsant activity entry with rodent test subjects [3] is on record as “free of proconvulsant activity”. Besides, the respiratory depression entry in the data set with rodent test subjects [4] was “much reduced extent”. For the same compound, in data set [5], the opioid agonist character entry is on record as “mixed mu/delta opioid agonists” and the “opioid receptor ligand selectivity” value was “highly selective”. For the same compound, in the data set with rodent test subjects [6], the analgesia efficacy result was “efficacious in mediating analgesia” and the “analgesia compared with morphine” value is given as “comparable to mu-analgesic morphine”.
On to `C=CCN1C[C@H](C)N([C@@H](c2cccc(O)c2)c2cccc(C(=O)N(C)c3cccc(F)c3)c2)C[C@H]1C` [Example 16, (+)-3-((αR)-α-((2S,5R)-4-Allyl-2,5-dimethyl-1-piperazinyl)-3-hydroxybenzyl)-N-(3-fluorophenyl)-N-methylbenzamide], for which the muscle rigidity entry in the data set with rodent test subjects [1] is given as “much reduced extent”. Also, the median effective dose (ED50) in data set [2] worked out at 0.03 mg/kg. Also, the “agonism at mu opioid receptor” value in the data set with mu opioid receptor is “agonism”. Further, the “agonism at delta opioid receptor” value at delta opioid receptor is reported as “agonism”. Also, the proconvulsant activity result in the data set on rodent test subjects [3] is “free of proconvulsant activity”. For the same compound, the respiratory depression result in the data set with rodent test subjects [4] is on record as “much reduced extent”. Further, in data set [5], the opioid agonist character result is reported as “mixed mu/delta opioid agonists” and the “opioid receptor ligand selectivity” value is on record as “highly selective”. In the data set on rodent test subjects [6], the analgesia efficacy result was “efficacious in mediating analgesia” and the “analgesia compared with morphine” value is on record as “comparable to mu-analgesic morphine”.
On to `C=CCN1C[C@H](C)N([C@@H](c2cccc(O)c2)c2cccc(C(=O)N(CCC)c3ccccc3)c2)C[C@H]1C` [Example 27, (+)-3-((αR)-α-((2S,5R)-4-Allyl-2.5-dimethyl-1-piperazinyl)-3-hydroxybenzyl)-N-phenyl-N-propylbenzamide], for which the muscle rigidity result in the data set with rodent test subjects [1] is reported as “much reduced extent”. Also, in data set [2], the 50% effective dose (ED50) is 0.04 mg/kg. In addition, the “agonism at mu opioid receptor” value in the data set with mu opioid receptor was “agonism”. On delta opioid receptor, the “agonism at delta opioid receptor” value was “agonism”. In addition, the proconvulsant activity result with rodent test subjects [3] is reported as “free of proconvulsant activity”. Also, in the data set with rodent test subjects [4], the respiratory depression entry was “much reduced extent”. In data set [5], the opioid agonist character entry was “mixed mu/delta opioid agonists” and the “opioid receptor ligand selectivity” value is “highly selective”. Further, in the data set with rodent test subjects [6], the analgesia efficacy result is on record as “efficacious in mediating analgesia” and the “analgesia compared with morphine” value was “comparable to mu-analgesic morphine”.
For the compound `C=CCN1C[C@H](C)N([C@@H](c2cccc(O)c2)c2cccc(C(=O)N(CC)c3ccc(F)cc3)c2)C[C@H]1C` [Example 28, (+)-3-((αR)-α-((2S,5R)-4-Allyl-2,5-dimethyl-1-piperazinyl)-3-hydroxybenzyl)-N-ethyl-N-(4-fluorophenyl)benzamide], the muscle rigidity entry in the data set with rodent test subjects [1] is “much reduced extent”. Further, the ED50 in data set [2] was 0.03 mg/kg. Besides, in the data set with mu opioid receptor, the “agonism at mu opioid receptor” value is given as “agonism”. On delta opioid receptor, the “agonism at delta opioid receptor” value is listed as “agonism”. Further, in the data set with rodent test subjects [3], the proconvulsant activity result was “free of proconvulsant activity”. The respiratory depression entry in the data set on rodent test subjects [4] is listed as “much reduced extent”. Further, in data set [5], the opioid agonist character entry is reported as “mixed mu/delta opioid agonists” and the “opioid receptor ligand selectivity” value is on record as “highly selective”. In addition, in the data set on rodent test subjects [6], the analgesia efficacy entry is recorded as “efficacious in mediating analgesia” and the “analgesia compared with morphine” value is reported as “comparable to mu-analgesic morphine”.
Consider `C=CCN1C[C@H](C)N([C@@H](c2cccc(O)c2)c2cccc(C(=O)N(C)c3ccc(OC)cc3)c2)C[C@H]1C` [Example 30, (+)-3-((αR)-α-((2S,5R)-4-Allyl-2.5-dimethyl-1-piperazinyl)-3-hydroxybenzyl)-N-(4-methoxyphenyl)-N-methylbenzamide], for which the muscle rigidity entry in the data set on rodent test subjects [1] was “much reduced extent”. In addition, in the data set with mu opioid receptor, the “agonism at mu opioid receptor” value is given as “agonism”. Besides, the “agonism at delta opioid receptor” value on delta opioid receptor is listed as “agonism”. Further, the proconvulsant activity result in the data set on rodent test subjects [3] is recorded as “free of proconvulsant activity”. The respiratory depression result in the data set with rodent test subjects [4] is “much reduced extent”. For the same compound, in data set [5], the opioid agonist character result was “mixed mu/delta opioid agonists” and the “opioid receptor ligand selectivity” value is listed as “highly selective”. For the same compound, in the data set with rodent test subjects [6], the analgesia efficacy entry was “efficacious in mediating analgesia” and the “analgesia compared with morphine” value was “comparable to mu-analgesic morphine”.
For the compound `C=CCN1C[C@H](C)N([C@@H](c2cccc(O)c2)c2cccc(C(=O)N(C)c3ccccc3F)c2)C[C@H]1C` [Example 31, (+)-3-((αR)-α-((2S,5R)-4-Allyl-2,5-dimethyl-1-piperazinyl)-3-hydroxybenzyl)-N-(2-fluorophenyl)-N-methylbenzamide], the muscle rigidity result in the data set with rodent test subjects [1] is listed as “much reduced extent”. For the same compound, the “agonism at mu opioid receptor” value with mu opioid receptor is reported as “agonism”. The “agonism at delta opioid receptor” value at delta opioid receptor is reported as “agonism”. For the same compound, the proconvulsant activity result with rodent test subjects [3] was “free of proconvulsant activity”. In addition, in the data set with rodent test subjects [4], the respiratory depression result was “much reduced extent”. In data set [5], the opioid agonist character entry is reported as “mixed mu/delta opioid agonists” and the “opioid receptor ligand selectivity” value was “highly selective”. For the same compound, in the data set on rodent test subjects [6], the analgesia efficacy result is “efficacious in mediating analgesia” and the “analgesia compared with morphine” value is “comparable to mu-analgesic morphine”.
